According to the supplement of paper PMC4862054:

Experiments:
Experiment in all cases: normalised response (% of control), CellTiter-Glo; higher = more viable cells (100 = DMSO, 0 = benzethonium chloride kill control)
Conditions in all cases: incubation time: 72 h
HCC1143 = test system: HCC1143
Summary of the method: (§1)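 For each plate, 0.1 % DMSO was set to 100 and a positive kill control to 0. Breast cancer cell lines (20 µl suspension) were seeded into 384-well plates already holding compound at 5 concentrations in 10-fold steps over a 10,000-fold range chosen per compound, and incubated for 72 h. CellTox Green fluorescence at 485/520 nm was read before CellTiter-Glo luminescence, which followed 10 min at room temperature. Each value is the normalised signal at one concentration.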

DU-4475 = test system: DU-4475
Summary of the method: as §1

CAL-148 = test system: CAL-148
Summary of the method: as §1

CAL-120 = test system: CAL-120
Summary of the method: as §1

MCF-10A = test system: MCF-10A
Summary of the method: as §1

SK-BR-3 = test system: SK-BR-3
Summary of the method: as §1

HCC1599 = test system: HCC1599
Summary of the method: as §1

MDA-MB-436 = test system: MDA-MB-436
Summary of the method: as §1

MDA-MB-468 = test system: MDA-MB-468
Summary of the method: as §1

CAL-51 = test system: CAL-51
Summary of the method: as §1

MFM-223 = test system: MFM-223
Summary of the method: as §1

HCC1937 = test system: HCC1937
Summary of the method: as §1

CAL-85-1 = test system: CAL-85-1
Summary of the method: as §1

MDA-MB-231 = test system: MDA-MB-231
Summary of the method: as §1

HDQ-P1 = test system: HDQ-P1
Summary of the method: as §1

BT-474 = test system: BT-474
Summary of the method: as §1

BT-549 = test system: BT-549
Summary of the method: as §1

Hs578T = test system: Hs578T
Summary of the method: as §1

MDA-MB-453 = test system: MDA-MB-453
Summary of the method: as §1

Row | Compound | normalised response (HCC1143) [%] | normalised response (DU-4475) [%] | normalised response (CAL-148) [%] | normalised response (CAL-120) [%] | normalised response (MCF-10A) [%] | normalised response (SK-BR-3) [%] | normalised response (HCC1599) [%] | normalised response (MDA-MB-436) [%] | normalised response (MDA-MB-468) [%] | normalised response (CAL-51) [%] | normalised response (MFM-223) [%] | normalised response (HCC1937) [%] | normalised response (CAL-85-1) [%] | normalised response (MDA-MB-231) [%] | normalised response (HDQ-P1) [%] | normalised response (BT-474) [%] | normalised response (BT-549) [%] | normalised response (Hs578T) [%] | normalised response (MDA-MB-453) [%]
1 | O=C(c1cc(Cc2n[nH]c(=O)c3ccccc23)ccc1F)N1CCN(C(=O)C2CC2)CC1 [Olaparib] (10 nM) | 95.6 | 102 | 98.9 | 93.2 | 99.5 | 100 | 113 | 91.8 | 101 | 110 | 93 | 101 | 108 | 90.2 | 96.2 | 97.1 | 98.2 | 98.6 | 97.8
2 | CC(C)(C)Cn1c(N)nc2ccc(-c3[nH]c(C(C)(C)C)nc3-c3ccc(F)cc3)nc21 (1 nM) | 104 | 98.1 | 110 | 98.8 | 109 | 104 | 104 | 101 | 102 | 117 | 106 | 105 | 99.9 | 99.3 | 101 | 103 | 103 | 95.4 | 110
3 | COc1cc2c(N3CCN(C(=O)Nc4ccc(OC(C)C)cc4)CC3)ncnc2cc1OCCCN1CCCCC1 [Tandutinib] (1 nM) | 103 | 102 | 101 | 104 | 99.8 |  | 90.9 | 107 | 102 | 118 | 103 | 99 | 107 | 101 | 103 | 99.9 | 94.9 | 98.6 | 95.1
4 | COc1cc2c(Oc3ccc(NC(=O)C4(C(=O)Nc5ccc(F)cc5)CC4)cc3F)ccnc2cc1OCCCN1CCOCC1 [Foretinib] (1 nM) | 102 | 100 | 101 | 99.7 | 102 | 97.6 | 94.3 | 99.2 | 99.4 | 106 | 102 | 95 | 94.8 | 99 | 97.7 | 104 | 98.4 | 97.4 | 108
5 | NC(=O)NO [Hydroxyurea] (100 nM) | 104 | 101 | 102 | 97.8 | 104 | 93.5 | 94.1 | 96.3 | 101 | 89.7 | 108 | 96 | 99.8 | 98.5 | 97.3 | 99.5 | 97.7 | 102 | 112
6 | COc1cc2c(cc1-c1c(C)noc1C)ncc1[nH]c(=O)n([C@H](C)c3ccccn3)c12 [I-BET151] (10 nM) | 107 | 103 | 111 | 100 | 108 |  | 100 | 101 | 99.2 | 94.3 | 103 | 98.5 | 99.4 | 105 | 97.9 | 98 | 91.9 | 99 | 91.7
7 | CC(C)C[C@H](NC(=O)[C@H](CCc1ccccc1)NC(=O)CN1CCOCC1)C(=O)N[C@@H](Cc1ccccc1)C(=O)N[C@@H](CC(C)C)C(=O)[C@@]1(C)CO1 [Carfilzomib] (1 nM) | 106 | 108 | 108 | 105 | 115 | 107 | 108 | 109 | 106 | 87.7 | 112 | 101 | 105 | 105 | 108 | 115 | 99.5 | 100 | 101
8 | CN1CCN(c2nc(C3=C(c4c[nH]c5ccccc45)C(=O)NC3=O)c3ccccc3n2)CC1 [Sotrastaurin] (10 nM) | 96.1 | 96.8 | 93.1 | 91.3 | 99.6 | 124 | 105 | 94.2 | 93.6 | 123 | 93.6 | 96.6 | 95.8 | 105 | 100 | 93.5 | 94.6 | 101 | 96.1
9 | CCCCCOC(=O)Nc1nc(=O)n([C@@H]2O[C@H](C)[C@@H](O)[C@H]2O)cc1F [Capecitabine] (10 nM) | 96.9 | 100 | 110 | 102 | 105 | 99.5 | 86.9 | 98.7 | 91.9 | 99.6 | 103 | 98.8 | 97.4 | 96.4 | 99.6 | 99.6 | 93.2 | 98.1 | 107
10 | CCCc1cc(C)[nH]c(=O)c1CNC(=O)c1cc(-c2ccnc(N3CCN(C)CC3)c2)cc2c1cnn2C(C)C [GSK343] (1 nM) | 87.7 | 92.7 | 84.4 | 95.5 | 99.5 | 91.9 | 80.2 | 97.3 | 89 | 116 | 94.7 | 93.4 | 102 | 92.5 | 98 | 94.2 | 100 | 105 | 99.5
11 | COc1cc(Nc2ncc(F)c(Nc3ccc4c(n3)N(COP(=O)(O)O)C(=O)C(C)(C)O4)n2)cc(OC)c1OC [Fostamatinib] (2.5 nM) | 102 | 93.8 | 97.7 | 105 | 97.7 | 92.7 | 87.7 | 92.9 | 96.7 | 73.5 | 98.8 | 99.6 | 99.7 | 96.2 | 110 | 103 | 102 | 102 | 104
12 | CC(C)NC[C@@H](C(=O)N1CCN(c2ncnc3c2[C@H](C)C[C@H]3O)CC1)c1ccc(Cl)cc1 [GDC-0068] (10 nM) | 103 | 105 | 96.8 | 99.8 | 103 |  | 90.8 | 94.4 | 95.7 | 108 | 98.8 | 97 | 95.6 | 110 | 96.1 | 96.8 | 98.2 | 100 | 91.1
13 | C[C@@H](C(=O)O)c1ccc(-c2ccccc2)c(F)c1 [Tarenflurbil] (10 nM) | 101 | 97 | 92.2 | 96.7 | 97.5 |  | 106 | 105 | 86.7 | 123 | 93.7 | 101 | 95.3 | 94.6 | 98 | 90.8 | 94.5 | 104 | 94.9
14 | CC(C)(C)Cn1c(N)nc2ccc(-c3[nH]c(C(C)(C)C)nc3-c3ccc(F)cc3)nc21 (10 nM) | 104 | 105 | 110 | 97.8 | 106 |  | 95.5 | 104 | 102 | 97.5 | 105 | 95.1 | 97.8 | 99.7 | 95.6 | 103 | 95.9 | 106 | 104
15 | C[C@@H]1C[C@H]2[C@@H]3CCC4=CC(=O)C=C[C@]4(C)[C@@]3(F)[C@@H](O)C[C@]2(C)[C@@]1(O)C(=O)CO [Dexamethasone] (10 nM) | 103 | 101 | 100 | 83.2 | 94 |  | 100 | 102 | 97.9 | 113 | 95.2 | 97.5 | 116 | 137 | 89.8 | 130 | 97.4 | 104 | 95.2
16 | Cc1cc2c(F)c(Oc3ncnn4cc(OC[C@@H](C)O)c(C)c34)ccc2[nH]1 [Brivanib] (1 nM) | 104 | 111 | 111 | 98.9 | 107 |  | 103 | 102 | 108 | 74.5 | 110 | 102 | 102 | 104 | 97.8 | 107 | 95.2 | 103 | 107
17 | CCN(CC)CCOc1ccc(C(=C(Cl)c2ccccc2)c2ccccc2)cc1 [Clomifene] (10 nM) | 104 | 103 | 102 | 106 | 107 |  | 96.3 | 101 | 99.2 | 122 | 102 | 111 | 99.9 | 105 | 100 | 107 | 99.5 | 103 | 112
18 | CC[C@H](CC#N)OC(=O)N[C@@H](C)c1cccc(NC(=O)Nc2ccc(-c3cnco3)c(OC)c2)c1 [AVN944] (10 nM) | 97.3 | 97.5 | 99.3 | 95 | 99.7 |  | 88.6 | 97.6 | 111 | 122 | 96.2 | 96 | 95.8 | 101 | 100 | 89.4 | 91.5 | 96.4 | 82.7
19 | Cn1nnc2c(C(N)=O)ncn2c1=O [Temozolomide] (10 nM) | 98.5 | 99.4 | 102 | 97.9 | 92.1 |  | 88.7 | 101 | 97 | 110 | 97.5 | 95.8 | 103 | 99.5 | 96.7 | 97 | 102 | 100 | 98
20 | Nc1nc(Cl)nc2c1ncn2[C@@H]1O[C@H](CO)[C@@H](O)[C@@H]1F [Clofarabine] (10 nM) | 102 | 102 | 107 | 101 | 105 |  | 95.2 | 95.1 | 98.9 | 72.2 | 101 | 95.8 | 105 | 93.5 | 96.8 | 102 | 98.3 | 105 | 91.3
21 | CCc1cnn2c(NCc3ccc[n+]([O-])c3)cc(N3CCCC[C@H]3CCO)nc12 [Dinaciclib] (1 nM) | 107 | 97.8 | 115 | 99.6 | 102 |  | 101 | 98.5 | 97.8 | 82.1 | 103 | 98.5 | 101 | 98.3 | 104 | 95.7 | 92.5 | 109 | 103
